The pKd is the Kd on a negative log10 scale, so that one unit is a factor of ten.

Consider two molecules from PMC7136958, “Targeting the pregnane X receptor using microbial metabolite mimicry” (EMBO Molecular Medicine, 2020).

pKd: −log10 of the molar value.

For data set [1], the system named is CYP1A1, CYP3A4, MDR1 mRNA in primary human hepatocytes. The data set can be described thus: qRT-PCR of CYP1A1, CYP3A4, MDR1 mRNA in primary human hepatocytes (four donors). The conditions noted are these: for CYP1A1 mRNA fold to C / CYP3A4 mRNA fold to C / MDR-1 mRNA fold to C: primary human hepatocytes donor Hep200538, fold to UT control; for CYP1A1 mRNA fold to C / CYP3A4 mRNA fold to C / MDR-1 mRNA fold to C / CYP1A1 (1A1) mRNA, fold to C / CYP3A4 (3A4) mRNA, fold to C / MDR1 mRNA fold to C / MDR-1 mRNA, fold to C: normalised to GAPDH; for CYP1A1 (1A1) mRNA, fold to C / CYP3A4 (3A4) mRNA, fold to C / MDR1 mRNA fold to C / MDR-1 mRNA, fold to C: primary human hepatocytes, fold vs untreated (UT). (In general: Quantitative PCR measures a nucleic acid by following its amplification.)
Protocol: Cells or primary human hepatocytes from four different donors (HEP200529, HEP220932, HEP200533, and HEP200538) were incubated for 24 h with test compounds; the vehicle was DMSO (0.1% v/v). Total RNA was isolated using TRI Reagent® (Molecular Research Center, Ohio, USA). cDNA was synthesized from 1,000 ng of total RNA using M‐MuLV Reverse Transcriptase (New England Biolabs, Ipswich, Massachusetts, USA) at 42°C for 60 min in the presence of random hexamers (New England Biolabs). Quantitative reverse transcriptase–polymerase chain reaction (qRT–PCR) was performed using LightCycler® 480 Probes Master on a LightCycler® 480 II apparatus (Roche Diagnostic Corporation).
The following protocol was used: An activation step at 95°C for 10 min was followed by 45 cycles of PCR (denaturation at 95°C for 10 s; annealing with elongation at 60°C for 30 s). The measurements were performed in triplicate. Gene expression was normalized per GAPDH as a housekeeping gene. […] Data are expressed as fold induction ± SD over the vehicle‐treated cells. The bar graph depicts one representative experiment of a series of experiments performed in three consecutive passages of cells. Differences were tested using one‐way ANOVA with Dunnett's post hoc test, and P < 0.05 was considered significant.

In a further data set the target is T1, FXR (Homo sapiens, UniProt Q96RI1).
T1 construct: purchased Invitrogen PV4833
T1 sequence (Q96RI1 211-486 limits assumed): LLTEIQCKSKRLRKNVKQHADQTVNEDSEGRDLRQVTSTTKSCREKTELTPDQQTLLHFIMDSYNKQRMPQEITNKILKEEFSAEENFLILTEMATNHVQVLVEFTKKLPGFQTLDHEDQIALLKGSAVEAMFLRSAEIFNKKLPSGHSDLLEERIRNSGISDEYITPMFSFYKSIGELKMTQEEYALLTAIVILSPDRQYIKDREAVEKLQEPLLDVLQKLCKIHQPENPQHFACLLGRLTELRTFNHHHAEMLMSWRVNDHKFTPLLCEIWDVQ
Briefly: hFXR TR-FRET (LanthaScreen FXR Coactivator Assay). The settings on record: 1 nM to 25 µM. Type of data set: biochemical. (In general: In TR-FRET formats the signal depends on donor and acceptor labels being close together.)

In another data set the test system is 468 kinases. Briefly: DiscoverX scanMAX kinase panel (KINOMEscan). The settings on record: for kinase inhibition (in words): panel of 468 kinases. Type of data set: binding, human. The protocol: Kinase Assays. The kinase inhibition assays were conducted by DiscoverX on a platform assay by Ambit BioSciences as described previously 16,17. FKK6 was screened at a single concentration of 10 μM in duplicate. The scanMAXSM assay panel measures 468 kinases
(https://www.discoverx.com/services/drug-discovery-development-services/kinase-profiling/kinomescan/scanmax). The assays measure a compound’s ability to inhibit binding of a canonical ligand substrate, with 0% activity of control corresponding to full inhibition and 100% activity of control to no inhibition. […]
quantitative measure of compound selectivity based on the number of kinase hits (enzymes inhibited) divided by the total number of distinct kinases tested. Three different activity cut-offs were analyzed – S(35) or % activity of control < 35; S(10) or % activity of control < 10; and S(1) or % activity of control < 1. To illustrate effect or lack of effect, an image of the entire family of kinases tested were grouped by families and S(35). The TREEspot Kinase dendrogram image was generated using TREEspot™ Software Tool and reprinted with permission from KINOME scan®, a division of DiscoveRx […]

The target in a further data set is T2, hPXR-LBD (PXR.1) (Homo sapiens, UniProt O75469).
T2 construct: made in house; host or cells: E. coli BL21-Gold
T2 sequence (O75469 146-433 limits assumed): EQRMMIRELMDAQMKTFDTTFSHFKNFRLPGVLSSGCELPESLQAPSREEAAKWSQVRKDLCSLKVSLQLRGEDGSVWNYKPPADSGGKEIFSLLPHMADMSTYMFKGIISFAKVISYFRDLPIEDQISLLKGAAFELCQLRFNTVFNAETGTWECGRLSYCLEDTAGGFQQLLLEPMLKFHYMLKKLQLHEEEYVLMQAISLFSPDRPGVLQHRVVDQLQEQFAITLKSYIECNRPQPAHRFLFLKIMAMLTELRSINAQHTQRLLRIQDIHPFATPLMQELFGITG
The data set can be described thus: Isothermal titration calorimetry with His-tagged hPXR-LBD. The settings on record: 37°C; for pKd: single-site model. Type of data set: binding. The protocol:
The cloning, expression, and purification of His‐tagged PXR‐LBD were performed as previously published (Wallace et al, 2013) with the following modifications: For protein expression, Luria–Bertani (LB) media were inoculated with a saturated culture of BL21‐Gold cells transformed with HIS‐LIC plasmid containing the PXR‐LBD construct. The mixture was allowed to shake at 37°C until the cells reached an OD600 ~ 0.6, and then, the temperature was reduced to 18°C, at which time IPTG was added (final concentration of 0.1 mM) to induce protein expression. For purification, the His‐tag was not removed, and the uncleaved protein was loaded onto the gel filtration column with buffer containing HEPES (4‐(2‐hydroxyethyl)‐1‐piperazineethanesulfonic acid) (25 mM, pH 7.5) and NaCl (150 mM).
Isothermal titration calorimetry (ITC) was carried out using a VP‐ITC microcalorimeter from MicroCal⁄Malvern Instruments (Northampton, MA, USA). […] In all the experiments, the ligand solution was injected in 10 μl aliquots into the calorimetric cell containing PXR‐LBD (ligand‐binding domain) at a concentration of 3–6 μM. […] The experiments were carried out at 37°C. The heat evolved upon each injection of the ligands was obtained from the integral of the calorimetric signal. The heat associated with binding to PXR‐LBD in the cell was obtained by subtracting the heat of dilution from the heat of reaction.
Background: Isothermal titration calorimetry measures the heat released or taken up as one component is titrated into another.

The target of another data set is T3, PPARγ (Homo sapiens, UniProt P37231).
T3 construct: endogenous in cells; host or cells: PAZ-PPARg
T3 sequence (P37231 whole entry): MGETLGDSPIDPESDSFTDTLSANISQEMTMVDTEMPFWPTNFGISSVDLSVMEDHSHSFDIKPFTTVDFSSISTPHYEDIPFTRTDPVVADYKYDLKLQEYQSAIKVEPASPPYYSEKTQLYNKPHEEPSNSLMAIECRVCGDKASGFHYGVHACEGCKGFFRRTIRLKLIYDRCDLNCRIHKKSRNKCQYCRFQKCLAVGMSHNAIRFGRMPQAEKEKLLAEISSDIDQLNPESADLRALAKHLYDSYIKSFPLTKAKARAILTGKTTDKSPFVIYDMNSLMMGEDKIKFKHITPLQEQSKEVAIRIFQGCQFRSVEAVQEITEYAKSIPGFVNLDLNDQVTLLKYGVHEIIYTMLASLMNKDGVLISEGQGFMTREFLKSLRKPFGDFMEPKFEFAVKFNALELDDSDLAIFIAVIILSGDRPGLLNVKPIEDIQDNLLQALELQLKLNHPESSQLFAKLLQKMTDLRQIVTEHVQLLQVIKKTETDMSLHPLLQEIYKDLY
Briefly: PPARγ reporter assay in PAZ-PPARg cells. It is filed as cell-based. The protocol: volume of 20 µl in 384-well black plates, with concentrations of tested compounds in the range from 1 […]
dark, and then fluorescent signals were measured at 495 nm and 520 nm, with the excitation filter 340 nm, on Infinite F200 microplate reader (Tecan Group Ltd, Switzerland). Finally, the TR-FRET ratio was calculated by dividing the emission signal of 520 nm by that at 495 nm. All experiments were done in tetraplicates and as two independent experiments. Final EC50 values were obtained by processing the data with GraphPad Prism 6 using standard curve interpolation (sigmoidal, 4PL, variable slope).
Tr a nscriptional activity of PPARγ was studied in stably transfected reporter cell line PAZ-PPARg 20. Cells were seeded in 96 -well plates, stabilized for 24 h, and then incubated with tested compound. Dimethyl sulfoxide (DMSO; 0.1% v/v) and 15 -deoxy-δ1 2 , 1 4-prostaglandin J2 […]
(Schoeller Instruments, Prague, Czech Republic). The data are expressed as fold induction ± SD of luciferase activity over the control cells. Differences were tested using one-way ANOVA wit h Dunnett’s post hoc test, p < 0.05, was considered significant (*).

Data set [2] has as its system PXR target genes in LS174T PXR-KO cells. The data set can be described thus: PXR target gene mRNA in LS174T PXR-KO cells. It is filed as cell-based, human. The protocol:
Figure EV5 LS174T PXR‐knockout (KO) cells are not responsive to PXR ligands • Expression of CYP1A1 and CYP3A4 mRNA in PXR‐knockout and wild‐type LS174T. […] Experiment was performed in 4 independent cell passages (6th, 8th, 10th, and 12th). The mRNA expression of CYP1A1 and CYP3A4 mRNA was determined by RT–PCR, and data were normalized to GAPDH mRNA level. (a) CYP1A1 mRNA. (b) CYP3A4 mRNA. Data are expressed as mean ± SD. • Immunoblot for PXR protein expression in PXR wild‐type and knockout (KO) cells. Experiment was performed in nine independent cell passages (P). • Fold mRNA expression of PXR target genes. Each tissue PCR was repeated in quadruplicate. The expression was normalized to internal control, GAPDH. The entire experiment was repeated n > 2 for reproducibility. The data shown are one representative experiment. Source data are available online for this figure.
Briefly, cells were first tested negative for mycoplasma.

For the molecule `C#CCC(O)(c1ccncc1)c1cc2ccccc2n1S(=O)(=O)c1ccccc1` (stereo not shown) [FKK6], in data set [1] (four donors), the “CYP1A1 mRNA induction” value is listed as “did not”, the “CYP3A4 mRNA induction” value was “more than twofold induction in one of four hepatocyte samples” and the “MDR1 mRNA induction” value was “MDR1 mRNA induction in one of four hepatocyte samples”. For the same molecule, in data set [1], the “CYP1A1 mRNA fold to C” value is listed as 15.94, the “CYP3A4 mRNA fold to C” value is 6.17 and the “MDR-1 mRNA fold to C” value was 0.95. In data set [1] (donor Hep200529), the “CYP1A1 (1A1) mRNA, fold to C” value was determined as 6.44 fold; the “CYP3A4 (3A4) mRNA, fold to C” value is 2.67 fold; the “MDR1 mRNA fold to C” value is listed as 1.52 fold. Also, in data set [1] (donor Hep200533), the “CYP1A1 (1A1) mRNA, fold to C” value came out at 3.26 fold; the “CYP3A4 (3A4) mRNA, fold to C” value was found to be 2.13 fold; the “MDR-1 mRNA, fold to C” value stood at 2.03 fold. For the same molecule, in data set [1] (donor Hep220932), the “CYP1A1 (1A1) mRNA, fold to C” value was determined as 0.76 fold; the “CYP3A4 (3A4) mRNA, fold to C” value amounted to 0.97 fold; the “MDR-1 mRNA, fold to C” value was determined as 0.40 fold. The “FXR ligand agonist activity” value at FXR is reported as “did not observe any significant ligand agonist activity”. For the same molecule, the “Interactions Mapped (TREEspot)” value with 468 kinases (10 μM) was determined as 0. Also, in the data set with 468 kinases (10 μM, 403 non-mutant kinases), the “Number of Hits, S(1)” value is recorded as 0; the “Number of Hits, S(10)” value is 0; the “Number of Hits, S(35)” value amounted to 0. Moreover, the “kinase inhibition (in words)” value on 468 kinases is listed as “neither of these compounds inhibited the kinases tested”. Moreover, on hPXR-LBD (PXR.1), the “ΔH (enthalpy of binding)” value was -3.5 kcal/mol, the “−TΔS” value was -4.1 kcal/mol and the pKd was 5.57. For the same molecule, at PPARγ, the “PPARγ ligand agonist activity” value is on record as “did not observe any significant ligand agonist activity”. In data set [2], the “PXR target gene induction” value is recorded as “did not induce”.

Turning to `O=C(c1ccncc1)c1cc2ccccc2n1S(=O)(=O)c1ccccc1` [FKK5, (1-(phenylsulfonyl)-1H-indol-2-yl)(pyridin-4-yl)methanone], the “CYP1A1 mRNA induction” value in data set [1] (four donors) is listed as “did not”. In addition, in data set [1], the “CYP1A1 mRNA fold to C” value was 1.13, the “CYP3A4 mRNA fold to C” value amounted to 0.84 and the “MDR-1 mRNA fold to C” value is reported as 0.52. Further, in data set [1] (donor Hep200529), the “CYP1A1 (1A1) mRNA, fold to C” value was determined as 1.12 fold; the “CYP3A4 (3A4) mRNA, fold to C” value is reported as 0.73 fold; the “MDR1 mRNA fold to C” value was 0.93 fold. In data set [1] (donor Hep200533), the “CYP1A1 (1A1) mRNA, fold to C” value was 1.51 fold; the “CYP3A4 (3A4) mRNA, fold to C” value stood at 1.03 fold; the “MDR-1 mRNA, fold to C” value was 1.05 fold. In addition, in data set [1] (donor Hep220932), the “CYP1A1 (1A1) mRNA, fold to C” value is 0.39 fold; the “CYP3A4 (3A4) mRNA, fold to C” value is 0.50 fold; the “MDR-1 mRNA, fold to C” value is 0.35 fold. Besides, the “FXR ligand agonist activity” value on FXR was “did not observe any significant ligand agonist activity”. At 468 kinases, the “kinase inhibition (in words)” value is listed as “neither of these compounds inhibited the kinases tested”. Also, on hPXR-LBD (PXR.1), the “ΔH (enthalpy of binding)” value is -2.5 kcal/mol, the “−TΔS” value was -6.4 kcal/mol and the pKd is 6.52. The “PPARγ ligand agonist activity” value on PPARγ is “did not observe any significant ligand agonist activity”. Besides, in data set [2], the “PXR target gene induction” value is “did not induce”.
